The source of these data is publication PMC10980839 (Drug Design, Development and Therapy, 2024).

“Also recorded” adds a separate entry of the source.

Data set [1] has as its system rat liver microsomes (RLMs). Put plainly: Inhibitory effect of baohuoside I on tofacitinib metabolism in RLMs. The data set is classed as in vitro ADME. Particulars: Lineweaver-Burk plot.
For data set [2] the following is noted: cited from earlier work.
The test system of data set [3] is rat liver microsomes (RLMs). To be noted: tofacitinib 1-400 μM, 0.5 mg/mL RLMs, 1 mM NADPH, 37 °C, 30 min.

Consider `COc1ccc(-c2oc3c(CC=C(C)C)c(O)cc(O)c3c(=O)c2O[C@@H]2O[C@@H](C)[C@H](O)[C@@H](O)[C@H]2O)cc1` [Baohuoside I], for which the “inhibition mechanism on tofacitinib metabolism” value in data set [1] was “a mixture of non-competitive and competitive inhibition; also recorded: a combination of non-competitive and competitive inhibition”.

A word on the Km: it is the concentration of substrate that gives half-maximal velocity. With `C[C@@H]1CCN(C(=O)CC#N)C[C@@H]1N(C)c1ncnc2[nH]ccc12` [Tofacitinib], in data set [2], the plasma protein binding entry is on record as “about 40%”. Also, in data set [3], the Km came to 39.9 µM and the Vmax turned out to be 4.2824 ng/min/mg.
